Measured values: publication PMC10167348, “Structural mechanisms of TRPM7 activation and inhibition” (Nature Communications, 2023)
Like-named read-outs stand apart in the source and are kept apart here.

Columns and labels:
wild-type TRPM7 = target: T1, wild-type TRPM7 (Mus musculus, UniProt Q923J1); assay: Whole-cell patch-clamp recordings in HEK 293T cells; assay type: cell-based; details: amplitude at +80 mV
T1 construct: expressed in transfected cells; host or cells: HEK 293T
Protocol: Patch-clamp experiments were performed as reported previously, with a few modifications[69],[70]. HEK 293T cells grown in 35-mm dishes to ~60% confluence were transiently transfected with Trpm7 cDNAs in the pIRES2-EGFP vector (2 µg/dish). Patch-clamp experiments were conducted 18–22 h after transfection with cells displaying EGFP fluorescence. Whole-cell currents were recorded using an EPC10 patch-clamp amplifier and PatchMaster software (Version V2x69, Harvard Bioscience). Voltages were corrected for a liquid junction potential of 10 mV. Currents were elicited by voltage ramps from –100 mV to +100 mV over 50 ms acquired at 0.5 Hz. The inward and outward current amplitudes were measured at –80 mV and +80 mV and were normalized to the cell size as pA/pF. The capacitance was measured using the automated capacitance cancellation function of EPC10. The standard extracellular solution contained 140 mM NaCl, 2.8 mM KCl, 1 mM CaCl2, 2 mM MgCl2, 10 mM HEPES-NaOH, and 11 mM glucose (all from Sigma-Aldrich). Solutions were adjusted to pH 7.2 using an FE20 pH meter (Mettler Toledo) and to 290 mOsm using a Vapro 5520 osmometer (Wescor Inc). […] For the experiment with naltriben, the intracellular solution contained 120 mM Cs-glutamate, 8 mM NaCl, 10 mM Cs-EGTA, 1.5 mM MgCl2, and 10 mM HEPES-CsOH. The intracellular solution was also adjusted to pH 7.2 and 290 mOsm. Data are presented as the mean ± SEM Unless indicated otherwise, data were compared by unpaired t-test (GraphPad Prism 8.4.0). For multiple comparisons, ordinary one-way ANOVA (GraphPad Prism 8.4.0) was used. Significance was accepted at P ≤ 0.05.

TRPM7-M991A = target: T2, TRPM7-M991A (Mus musculus, UniProt Q923J1, M991A); assay: Aequorin-based Ca2+ influx assay, inhibition of TRPM7-mediated Ca2+ influx; assay type: cell-based
T2 construct: expressed in transfected cells; host or cells: HEK 293T
T2 sequence (Q923J1 whole entry M991A): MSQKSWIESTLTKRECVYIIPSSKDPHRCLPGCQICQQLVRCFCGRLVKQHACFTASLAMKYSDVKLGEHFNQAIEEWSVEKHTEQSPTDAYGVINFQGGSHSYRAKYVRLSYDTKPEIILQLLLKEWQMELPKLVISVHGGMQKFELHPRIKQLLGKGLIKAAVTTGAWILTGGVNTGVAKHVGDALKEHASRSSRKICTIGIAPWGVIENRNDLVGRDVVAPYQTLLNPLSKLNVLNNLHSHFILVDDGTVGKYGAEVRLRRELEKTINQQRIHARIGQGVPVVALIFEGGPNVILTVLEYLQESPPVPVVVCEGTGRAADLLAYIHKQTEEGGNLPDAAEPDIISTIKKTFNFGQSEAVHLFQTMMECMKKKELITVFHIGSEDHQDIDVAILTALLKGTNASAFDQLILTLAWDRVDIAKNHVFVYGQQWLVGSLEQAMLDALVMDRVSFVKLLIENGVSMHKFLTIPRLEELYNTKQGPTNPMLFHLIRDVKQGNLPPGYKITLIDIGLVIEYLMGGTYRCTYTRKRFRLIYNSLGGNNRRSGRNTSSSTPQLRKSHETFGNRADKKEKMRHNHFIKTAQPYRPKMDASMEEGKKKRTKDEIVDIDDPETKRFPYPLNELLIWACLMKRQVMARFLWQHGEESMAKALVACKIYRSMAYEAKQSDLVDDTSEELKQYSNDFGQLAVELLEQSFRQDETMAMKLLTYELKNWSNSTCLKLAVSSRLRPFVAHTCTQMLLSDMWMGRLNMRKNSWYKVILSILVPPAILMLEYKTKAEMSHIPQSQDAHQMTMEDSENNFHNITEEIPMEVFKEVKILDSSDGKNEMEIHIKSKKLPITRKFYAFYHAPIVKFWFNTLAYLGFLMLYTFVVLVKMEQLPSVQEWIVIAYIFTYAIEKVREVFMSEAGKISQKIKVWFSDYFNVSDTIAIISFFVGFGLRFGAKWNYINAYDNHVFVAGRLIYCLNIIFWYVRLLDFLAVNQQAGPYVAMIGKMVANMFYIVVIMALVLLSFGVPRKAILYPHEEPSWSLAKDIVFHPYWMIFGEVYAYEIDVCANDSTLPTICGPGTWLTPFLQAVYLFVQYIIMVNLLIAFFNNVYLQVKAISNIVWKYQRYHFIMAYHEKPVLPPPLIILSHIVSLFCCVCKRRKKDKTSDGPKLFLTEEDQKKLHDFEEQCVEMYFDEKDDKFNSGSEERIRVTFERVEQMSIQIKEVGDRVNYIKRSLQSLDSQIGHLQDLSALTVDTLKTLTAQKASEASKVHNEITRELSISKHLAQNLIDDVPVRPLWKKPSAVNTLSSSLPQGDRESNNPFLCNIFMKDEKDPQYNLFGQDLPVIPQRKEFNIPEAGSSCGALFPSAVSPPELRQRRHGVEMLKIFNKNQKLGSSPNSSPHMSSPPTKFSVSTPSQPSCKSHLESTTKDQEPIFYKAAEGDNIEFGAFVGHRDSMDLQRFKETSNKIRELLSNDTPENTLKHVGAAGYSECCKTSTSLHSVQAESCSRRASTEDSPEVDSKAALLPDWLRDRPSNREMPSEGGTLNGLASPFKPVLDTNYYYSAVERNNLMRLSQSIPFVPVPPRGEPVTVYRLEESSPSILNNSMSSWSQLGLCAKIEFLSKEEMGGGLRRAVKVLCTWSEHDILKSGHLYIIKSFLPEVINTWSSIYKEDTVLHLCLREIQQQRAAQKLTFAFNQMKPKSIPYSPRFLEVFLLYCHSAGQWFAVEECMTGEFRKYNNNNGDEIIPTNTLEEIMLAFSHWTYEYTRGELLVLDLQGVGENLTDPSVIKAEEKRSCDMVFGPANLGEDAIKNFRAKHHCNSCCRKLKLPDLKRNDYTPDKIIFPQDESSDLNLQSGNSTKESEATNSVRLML
Protocol: (§1) Measurements of [Ca^2+]i were performed as reported previously with several modifications[2],[52],[54]. HEK 293T cells (mycoplasma test negative, ATCC #CRL3216) were maintained at 37 °C and 5% CO2 in DMEM supplemented with 10% fetal calf serum, 100 µg/ml streptomycin and 100 U/ml penicillin (all from Thermo Fisher Scientific). Cells cultured in six-well plates (~60% confluence) were transfected with 2 µg/dish Trpm7 plasmid DNA and 0.1 µg/dish pG5A plasmid DNA encoding eGFP fused to Aequorea victoria aequorin, using Lipofectamine 2000 (Thermo Fisher Scientific). Twenty-four hours after transfection, the cells were washed with Mg^2+-free HEPES-buffered saline (Mg^2+-free HBS) containing 140 mM NaCl, 6 mM KCl, 0.5 mM CaCl2, 10 mM HEPES (pH 7.4) and 5 mM glucose, and mechanically resuspended in the Mg^2+-free HBS. For reconstitution of aequorin, cell suspensions were incubated with 5 µM coelenterazine (Biaffin GmbH) in the Mg^2+-free HBS for 30 min at room temperature. Cells were washed twice by centrifugation at 600 rpm for 5 min (Heraeus Pico 17 microcentrifuge, Thermo Fisher Scientific), resuspended in the Mg^2+-free HBS and aliquoted into 96-well plates (1 × 10^5 cells per well). Luminescence was detected at room temperature using a FLUOstar OPTIMA microplate reader (BMG LABTECH GmbH). To monitor the NS8593- and VER155008-induced inhibition of TRPM7-mediated Ca^2+ influx, the extracellular concentration of Ca^2+ was increased to 5 mM by injecting the CaCl2-containing Mg^2+-free HBS in the absence or presence of the inhibitors. […] To study activation by naltriben, TRPM7-transfected cells were exposed to Mg^2+-free HBS containing different concentrations of the agonist. The experiments were terminated by lysing cells with 0.1% (v/v) Triton X-100 in the Mg^2+-free HBS to record the total bioluminescence. The bioluminescence rates (counts/s) were analyzed at 1-s intervals and calibrated as [Ca^2+]i values using the following equation:1 p[Ca^2+]i=0.332588(−log(k))+5.5593 where k represents the rate of aequorin consumption, i.e., counts/s divided by the total number of counts.
(§2) To determine the IC50 values for NS8593 and VER155008 (EC50 for naltriben), the data were fitted with the following logistic equation:2 Ec=Emin+Emax+Emin/1+c^h/IC50^h where E(c) is the functional effect at the concentration c of the compound, Emin is the minimal effect, Emax is the maximal effect, IC50 (EC50) is the concentration of the compound that produces the half-maximal effect, and h is the Hill coefficient. Fitting of dose-response curves was performed using GraphPad Prism 8.4.0. Data are presented as the mean ± SEM.

TRPM7-W1111A = target: T3, TRPM7-W1111A (Mus musculus, UniProt Q923J1, W1111A); assay: as above; assay type: cell-based
T3 construct: expressed in transfected cells; host or cells: HEK 293T
T3 sequence (Q923J1 whole entry W1111A): as the sequence (Q923J1 whole entry M991A) above, with A991M, W1111A counted along it
Protocol: as §1, §2

TRPM7-A981V = target: T4, TRPM7-A981V (Mus musculus, UniProt Q923J1, A981V); assay: as above; assay type: cell-based
T4 construct: expressed in transfected cells; host or cells: HEK 293T
T4 sequence (Q923J1 whole entry A981V): as the sequence (Q923J1 whole entry M991A) above, with A981V, A991M counted along it
Protocol: as §1, §2

TRPM7 WT = target: T5, TRPM7 WT (Mus musculus, UniProt Q923J1); assay: as above; assay type: cell-based
T5 construct: expressed in transfected cells; host or cells: HEK 293T
T5 sequence (Q923J1 whole entry): as the sequence (Q923J1 whole entry M991A) above, with A991M counted along it
Protocol: as §1, §2

[1] = Solubility of the compound (authors' remark); details: mM range could not be examined
[2] = [NS8593] 0.7 µM, replicate values, read-out: TRPM7 activity, 100%
[3] = [NS8593] 7.0 µM, replicate values, read-out: TRPM7 activity, 100%

T1 sequence (Q923J1 whole entry): as the sequence (Q923J1 whole entry M991A) above, with A991M counted along it

With c1ccc2c(c1)CCC[C@H]2Nc1nc2ccccc2[nH]1 [NS8593] the “amplitude of TRPM7-mediated currents in the presence of inhibitor” value (wild-type TRPM7; 10 µM inhibitor, 450-s exposure) was “greatly reduced”, the remaining activity at 0.7 µM (TRPM7-M991A; M991A in the presence of 10 µM VER155008, [NS8593] 0.7 µM, replicate values, read-out: TRPM7 activity, 100%) was 77% and the remaining activity at 1 µM (TRPM7-M991A; M991A in the presence of 10 µM VER155008, [NS8593] 1.0 µM, replicate values, read-out: TRPM7 activity, 100%) was 61.9%. For the same compound, the remaining activity at 3 µM (TRPM7-M991A; M991A in the presence of 10 µM VER155008, [NS8593] 3.0 µM, replicate values, read-out: TRPM7 activity, 100%) was 17.1%, the remaining activity at 5 µM (TRPM7-M991A; M991A in the presence of 10 µM VER155008, [NS8593] 5.0 µM, replicate values, read-out: TRPM7 activity, 100%) was 11.9% and the remaining activity at 1 µM (TRPM7-M991A; M991A without VER155008, [NS8593] 1.0 µM, replicate values, read-out: TRPM7 activity, 100%) was 28.8%. For the same compound, the Hill coefficient (TRPM7-M991A; M991A, antagonist, no added second inhibitor, mean ± SEM) was “–1.24 ± 0.15”, the IC50 (TRPM7-M991A; M991A, antagonist, no added second inhibitor, mean ± SEM, read-out: IC50) was 0.59 ± 0.05 µM and the Hill coefficient (TRPM7-M991A; M991A, in the presence of 10 µM VER155008, mean ± SEM) was “–1.43 ± 0.11”. The remaining activity at 0.5 µM (TRPM7-W1111A; [NS8593] 0.5 µM, replicate values, read-out: TRPM7 activity, 100%) was 103%, the remaining activity at 0.7 µM (TRPM7-W1111A; [2]) was 103% and the remaining activity at 1 µM (TRPM7-W1111A; [NS8593] 1.0 µM, replicate values, read-out: TRPM7 activity, 100%) was 98.1%. The remaining activity at 3 µM (TRPM7-W1111A; [NS8593] 3.0 µM, replicate values, read-out: TRPM7 activity, 100%) was 62.5%, the remaining activity at 7 µM (TRPM7-W1111A; [3]) was 50.3% and the Hill coefficient (TRPM7-W1111A; antagonist, mean ± SEM) was “–1.54 ± 0.24”. The IC50 (TRPM7-W1111A; antagonist, mean ± SEM) was 5.14 ± 0.45 µM, the remaining activity at 0.3 µM (TRPM7-A981V; [NS8593] 0.3 µM, replicate values, read-out: TRPM7 activity, 100%) was 98.9% and the remaining activity at 0.7 µM (TRPM7-A981V; [2]) was 97.4%. For the same compound, the remaining activity at 7 µM (TRPM7-A981V; [3]) was 81.9%, the Hill coefficient (TRPM7-A981V; antagonist, mean ± SEM) was “–1.45 ± 0.50” and the IC50 (TRPM7-A981V; antagonist, mean ± SEM, read-out: IC50) was 21.9 ± 12.3 µM. The remaining activity at 7 µM (TRPM7 WT; [3]) was 0%, the remaining activity at 30 µM (TRPM7 WT; [NS8593] 30.0 µM, replicate values, read-out: TRPM7 activity, 100%) was 0% and the remaining activity at 50 µM (TRPM7 WT; [NS8593] 50.0 µM, replicate values, read-out: TRPM7 activity, 100%) was 0%. For the same compound, the Hill coefficient (TRPM7 WT; antagonist, mean ± SEM) was “–1.73 ± 0.26” and the IC50 (TRPM7 WT; antagonist, mean ± SEM) was 0.91 ± 0.08 µM.
With Oc1ccc2c3c1O[C@H]1c4oc5ccccc5c4C[C@@]4(O)[C@@H](C2)N(CC2CC2)CC[C@]314 [Naltriben, naltriben] the “whole-cell currents in the presence of agonist” value (wild-type TRPM7; 500 μM NTB, 170-s application) was “dramatically increased” and the solubility [1] was “limited solubility”.
